According to US7718684B2, “Methods and materials for assessing prostate cancer therapies and compounds” (The Regents of the University of California, priority 2004, dated 2010):

Assays:
[1] = target: AR transcription complex on the promoters of PSA and KLK2 in LNCaP cells (Homo sapiens, UniProt P10275, T878A)
LNCaP-AR cells [2] = assay: In vitro growth of LNCaP-AR cells (low androgen / bicalutamide)
[3] = system: LNCaP cells infected with the empty vector; assay: In vitro growth of LNCaP vector cells in low androgen; format: cell-based, human; conditions: steroid-depleted
AR LBD = conditions: cited from earlier work
[4] = system: prostate-specific antigen (PSA) produced by LNCaP cells; assay: PSA produced by LNCaP cells; format: cell-based, human
[5] = system: LNCaP cells infected with the empty-vector control; assay: Microarray of induced genes in LNCaP control cells; format: cell-based, human; conditions: 10 μM
LNCaP-AR cells [6] = assay: Microarray of induced genes in LNCaP-AR cells; format: cell-based, human
[7] = system: PSA expression in LAPC4 cells expressing increased levels of AR; assay: PSA expression in LAPC4 cells with increased AR; conditions: androgen-starved
[8] = system: PSA mRNA and protein expression in parental LAPC4 cells; assay: PSA expression in parental LAPC4 cells; conditions: androgen-starved

AR transcription complex on the promoters of PSA and KLK2 in LNCaP cells, sequence (P10275 whole entry T878A, one chain of several): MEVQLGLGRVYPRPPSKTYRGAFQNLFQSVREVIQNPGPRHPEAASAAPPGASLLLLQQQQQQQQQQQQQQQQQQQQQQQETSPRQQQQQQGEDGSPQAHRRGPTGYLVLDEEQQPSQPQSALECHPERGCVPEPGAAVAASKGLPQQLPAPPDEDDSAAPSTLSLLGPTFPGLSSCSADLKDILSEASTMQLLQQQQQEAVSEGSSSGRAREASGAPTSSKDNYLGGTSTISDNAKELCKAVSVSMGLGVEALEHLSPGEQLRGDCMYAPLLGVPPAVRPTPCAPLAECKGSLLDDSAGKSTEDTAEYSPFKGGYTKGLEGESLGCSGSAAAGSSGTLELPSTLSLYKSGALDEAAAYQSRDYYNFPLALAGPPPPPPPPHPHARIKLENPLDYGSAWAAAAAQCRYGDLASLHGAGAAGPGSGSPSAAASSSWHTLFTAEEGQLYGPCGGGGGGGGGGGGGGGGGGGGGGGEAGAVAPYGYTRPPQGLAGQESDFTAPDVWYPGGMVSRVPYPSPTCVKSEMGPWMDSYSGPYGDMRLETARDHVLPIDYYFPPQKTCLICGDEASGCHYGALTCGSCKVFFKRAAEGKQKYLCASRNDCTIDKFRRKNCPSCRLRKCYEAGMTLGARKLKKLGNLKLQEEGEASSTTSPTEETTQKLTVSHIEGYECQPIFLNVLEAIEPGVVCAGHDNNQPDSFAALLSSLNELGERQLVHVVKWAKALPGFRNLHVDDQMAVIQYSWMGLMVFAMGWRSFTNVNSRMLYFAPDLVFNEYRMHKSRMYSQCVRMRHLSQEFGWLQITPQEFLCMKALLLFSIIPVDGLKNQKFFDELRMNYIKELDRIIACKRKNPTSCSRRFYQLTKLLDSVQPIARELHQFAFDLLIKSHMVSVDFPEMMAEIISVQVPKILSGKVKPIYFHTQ

C[C@]1(O)CC[C@H]2[C@@H]3CCC4=CC(=O)CCC4=C3C=C[C@@]21C [Compound R1881, R1881]
recruitment of AR and polymerase II to promoters [1]: AR and polymerase II were recruited to both promoters regardless of AR level | lower concentration supporting growth versus vector cells (LNCaP-AR cells [2]; charcoal-stripped serum, relative to vector cells): at least 80% | concentration needed for growth in charcoal-stripped serum [3]: 100 pM

CC1(C)C(=O)N(c2ccc(C#N)c(C(F)(F)F)c2)C(=S)N1CCCCO [RU59063]
binding to AR LBD compared with drugs such as bicalutamide (AR LBD): more potent binders of the AR LBD

CC1(C)C(=O)N(c2ccc(C#N)c(C(F)(F)F)c2)C(=S)N1c1ccc(N=[N+]=[N-])cc1 [Compound 5]
antagonist character ([4]; LNCaP cells, PSA): full antagonists | IC50 for PSA expression compared with bicalutamide ([4]; LNCaP cells, relative to bicalutamide): ten-fold lower | agonist and antagonist effects ([4]; initial screening and biological testing): best antagonist effects without any strong agonist effects

CC(O)(CS(=O)(=O)c1ccc(F)cc1)C(=O)Nc1ccc(C#N)c(C(F)(F)F)c1 (stereo not shown) [bicalutamide]
probe sets induced [5]: no elements were significantly upregulated | probe sets induced (LNCaP-AR cells [6]; 10 μM, 2-fold increase, P<0.05, 500 minimum expression): 48 probe sets | subset of total androgen-regulated genes induced (LNCaP-AR cells [6]; of >600 androgen-regulated probe sets): < 10% | effect on PSA expression [7]: functioned as an agonist | growth in the presence of the antiandrogen (LNCaP-AR cells [2]; LNCaP-AR cells): resistant | effect on PSA mRNA and protein expression [8]: typical antagonist activity
